This note sets out measurements from US7157594B2, “6-Fluorobicyclo[3.1.0]hexane derivatives” (Taisho Pharmaceutical Co., Ltd., priority 2001, dated 2007).

Read-outs that look alike come from different tables or passages of the source.

In data set [1] the target is T1, metabotropic glutamate receptor mGluR2 (Rattus norvegicus, UniProt P31421).
T1 construct: expressed in transfected cells
Put plainly: Antagonistic effect on glutamic acid-induced inhibition of forskolin-stimulated cAMP accumulation in CHO cells stably expressing mGluR2. The data set is classed as cell-based. As to the method: Antagonistic Effect of Test Drugs on cAMP Accumulation in CHO Cells Modified to Stably Express Metabotropic Glutamate Receptor mGluR2
Using Dulbecco's modified Eagle's medium with 10% dialyzed fetal bovine serum [1% proline, 50 units/ml penicillin, 50 μg/ml streptomycin, 2 mM L-glutamine (added before use)], CHO cells modified to stably express metabotropic glutamate receptor mGluR2 were seeded in 96-well plates at a ratio of 1.26×10^4 cells/well/0.32 cm^2/150 μl and grown at 37° C. under 5% CO2 for 2 days. The medium was then replaced by L-glutamine-free medium, and after 4 hours, the supernatant was removed by aspiration. PBS(+)-IBMX (10 mM PBS(−), 1 mM MgCl2, 1 mM CaCl2, 1 mM IBMX) was added in 150 μl aliquots and the plates were incubated for 20 minutes at 37° C. under 5% CO2. […] The dried samples were assayed for cAMP levels using a cAMP EIA kit (Amersham). The value of control samples was subtracted from each measured cAMP level.

For data set [2], the system named is male SD rats. Put plainly: Antidepressant effect by forced swimming test in rats. The data set is classed as in vivo, rat. The following applies: two i.p. injections (24 hours and 1 hour before) at 0.3, 1 or 3 mg/kg, compared to solvent group, Dunnett's test, FIGS. 1 and 2. As to the method:
Evaluation of Antidepressant Effect by Forced Swimming Test in Rats
• (1) The animals used for this experiment were male SD rats (body weigh: 220–240 g, Charles River Japan). • (2) The test drugs used were:
Namely, the rats were placed in a cylinder containing water 30 cm deep and forced to swim for 15 minutes. After a period of 24 hours, the rats were forced again to swim for 5 minutes (actual experiment). The immobility time in this actual experiment was measured for each rat to evaluate the antidepressant effect of test drugs.
The test groups received two intraperitoneal injections (24 hours and 1 hour before the actual experiment) of LY341495 or Compound 34 in 1/15 M phosphate buffer at a dose of 0.3 mg/kg, 1 mg/kg or 3 mg/kg. The solvent group received only 1/15 M phosphate buffer by intraperitoneal route. • (4) The symbols * and ** in FIGS. 1 and 2 denote statistical significance at P<0.05 and P<0.01 by Dunnett's test, respectively, when compared to the solvent group receiving 1/15 M phosphate buffer.

Where [3] appears, read: read-out: IC50, concentration required for 50% antagonism of inhibitory effect of 30 μM glutamic acid on 10^-5 M forskolin-stimulated cAMP level.
[4] abbreviates: 30 μM glutamic acid, 10^-5 M forskolin.

T1 sequence (P31421 19-872): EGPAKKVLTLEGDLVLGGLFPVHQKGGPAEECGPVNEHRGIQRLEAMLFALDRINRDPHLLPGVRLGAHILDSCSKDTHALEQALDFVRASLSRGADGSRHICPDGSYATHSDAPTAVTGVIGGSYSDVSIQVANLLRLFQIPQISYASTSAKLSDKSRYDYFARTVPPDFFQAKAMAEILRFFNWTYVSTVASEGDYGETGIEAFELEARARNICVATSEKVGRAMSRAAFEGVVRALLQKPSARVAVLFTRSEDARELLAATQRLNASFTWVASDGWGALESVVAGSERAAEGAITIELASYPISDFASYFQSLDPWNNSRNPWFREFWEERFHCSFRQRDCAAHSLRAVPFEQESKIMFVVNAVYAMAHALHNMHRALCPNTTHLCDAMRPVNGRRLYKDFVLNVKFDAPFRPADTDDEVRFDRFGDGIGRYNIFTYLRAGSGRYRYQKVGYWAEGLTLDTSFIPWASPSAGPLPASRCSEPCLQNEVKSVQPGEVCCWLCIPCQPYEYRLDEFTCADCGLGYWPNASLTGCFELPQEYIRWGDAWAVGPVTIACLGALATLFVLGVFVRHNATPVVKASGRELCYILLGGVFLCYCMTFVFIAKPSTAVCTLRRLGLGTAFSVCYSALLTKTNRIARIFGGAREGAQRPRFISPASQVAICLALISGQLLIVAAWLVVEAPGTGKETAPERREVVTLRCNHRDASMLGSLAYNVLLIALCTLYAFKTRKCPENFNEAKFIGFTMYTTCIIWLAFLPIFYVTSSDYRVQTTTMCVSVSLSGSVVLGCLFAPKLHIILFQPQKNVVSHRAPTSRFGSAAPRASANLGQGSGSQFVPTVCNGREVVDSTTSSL

In general, melting point refers to the temperature, or range, at which the solid turns liquid. Compound `CCOC(=O)[C@@]1(N)[C@H]2[C@@H](C[C@H]1OCc1ccc(Cl)c(Cl)c1)[C@]2(F)C(=O)O` showed a melting point of more than 233 °C.
On to `CO[C@@H]1C[C@@H]2[C@H]([C@]1(N)C(=O)O)[C@@]2(F)C(=O)O` [Compound 1, (1R,2R,3R,5R,6R)-2-amino-3-methoxy-6-fluorobicyclo[3.1.0]hexane-2,6-dicarboxylic acid], for which the melting point was more than 199 °C. Also, the IC50 in data set [1] (setting [3]) was 229 nM.
In turn, `CCCC(C)OC1C[C@@H]2[C@@H]([C@@]2(F)C(=O)O)[C@]1(N)C(=O)O` (stereo partly drawn) [Compound 44] showed a melting point of more than 170 °C.
Take `NC1(C(=O)O)C(OCc2ccc3ccccc3c2)CC2C1C2(F)C(=O)O` (stereo not drawn) [Compound 42]: the melting point is more than 210 °C. Also, the IC50 in data set [1] (setting [4]) worked out at 22.7 nM.
With `Nc1cccc(CO[C@@H]2C[C@@H]3[C@H]([C@]2(N)C(=O)O)[C@@]3(F)C(=O)O)c1` (hydrate or solvate), the melting point was more than 190 °C.
With `N[C@](CC1c2ccccc2Oc2ccccc21)(C(=O)O)[C@H]1C[C@@H]1C(=O)O` [LY341495, (2S)-2-amino-2-((1S,2S)-2-carboxycycloprop-1-yl)-3-(9-xanthyl)propionic acid, reference compound], in data set [2], the “immobility time in forced swimming test” value is recorded as “significant dose-dependent reduction in immobility time”.
`C=CCO[C@@H]1C[C@@H]2[C@H]([C@]1(N)C(=O)O)[C@@]2(F)C(=O)O` [Compound 5, (1R,2R,3R,5R,6R)-2-Amino-3-(2-propenyloxy)-6-fluorobicyclo[3.1.0]hexane-2,6-dicarboxylic acid] came in with a melting point of more than 248 °C.
Regarding `N[C@]1(C(=O)O)[C@H]2[C@@H](C[C@H]1OCc1ccc(Cl)c(Cl)c1)[C@]2(F)C(=O)O` [Compound 34, (1R,2R,3R,5R,6R)-2-amino-3-(3,4-dichlorobenzyloxy)-6-fluorobicyclo[3.1.0]hexane-2,6-dicarboxylic acid], the “immobility time in forced swimming test” value in data set [2] is “significant dose-dependent reduction in immobility time”. Moreover, in data set [1] (setting [3]), the IC50 is 20 nM.
With `CC(O[C@@H]1C[C@@H]2[C@H]([C@]1(N)C(=O)O)[C@@]2(F)C(=O)O)c1ccc2ccccc2c1` (relative stereo) [57], the melting point is more than 185 °C.
Still for that read-out and setting: the same measure for `CC(O[C@@H]1C[C@@H]2[C@H]([C@]1(N)C(=O)O)[C@@]2(F)C(=O)O)c1ccc2ccccc2c1` (relative stereo) [58]: more than 188 °C.
Take `NC1(C(=O)O)C(OCc2ccc(F)c(F)c2)CC2C1C2(F)C(=O)O` (stereo not drawn) [Compound 28]: the IC50 in data set [1] (setting [4]) was 40.8 nM.
Regarding `N[C@]1(C(=O)O)[C@H]2[C@@H](C[C@H]1OCc1ccc(Cl)cc1)[C@]2(F)C(=O)O` [Compound 22], the melting point was more than 220 °C. Also, the IC50 in data set [1] (setting [3]) is 29.1 nM.
Regarding `COC1C[C@@H]2[C@@H]([C@@]2(F)C(=O)O)[C@]1(N)C(=O)O` (stereo partly drawn) [Compound 2], the melting point was more than 171 °C.
In the case of `NC1(C(=O)O)C(OCc2ccccc2)CC2C1C2(F)C(=O)O` (stereo not drawn) [Compound 6], the melting point is more than 226 °C. Moreover, the IC50 in data set [1] (setting [4]) was 131 nM.
As to `NC1(C(=O)O)C(OC(c2ccccc2)c2ccccc2)CC2C1C2(F)C(=O)O` (stereo not drawn) [Compound 52], the melting point was more than 230 °C. Further, the IC50 in data set [1] (setting [4]) turned out to be 24.4 nM.
